Experimental data from PMC8027415, “Plant resistome profiling in evolutionary old bog vegetation provides new clues to understand emergence of multi-resistance” (The ISME Journal, 2020).

Test system: T1, Mm3 (β-lactamase from Moss metagenome clone 3; blaMm3)
T1 construct: mix of tagged 35 kDa and 32 kDa species lacking tag
Assay: spectrophotometric hydrolysis at […] nm, initial rates
Format: biochemical, uncultured bacterium
Conditions: 20 mM sodium phosphate, 0.2 M NaCl, pH 7.4, 30 °C

Compound | Km (fitted with the Hill equation (half-saturation constant)) [µM] | Km (fitted with the Michaelis-Menten equation) [µM]
CC1(C)S[C@@H]2[C@H](NC(=O)[C@H](N)c3ccccc3)C(=O)N2[C@H]1C(=O)O [ampicillin] | 271 ± 16.4 | –
CC1(C)S[C@@H]2[C@H](NC(=O)C(C(=O)O)c3ccccc3)C(=O)N2[C@H]1C(=O)O (some centres unmarked) [carbenicillin] | – | 400 ± 42.7
